Experiments:
IR, IRS-2 and AKT = experiment: Insulin-stimulated activation of IR, IRS-2 and AKT in HEK293 cells expressing IKKβ, IKKα or NIK; type: cell-based; conditions: treatment with aspirin
Description: To directly test the potential role of IKK, The IKKα and IKKβ catalytic subunits and NIK, an upstream activator, were expressed in HEK293 cells. Insulin stimulated the activation of IR, IRS-2 and AKT in these cells. Activation was attenuated by expression of IKKβ, IKKα or NIK. Attenuated activation was reversed by treatment with aspirin.

IRS-1 [1] = experiment: Insulin-stimulated tyrosine phosphorylation of IRS-1 in 3T3-L1 adipocytes made 'insulin resistant'; type: cell-based
Description: (§1) Culture cells were used as follows to investigate the mechanisms relating to salicylate treatment to the in vivo reversal of insulin resistance. TNF-α treatment of 3T3-L1 adipocytes induced ‘insulin resistance’, as judged by significant decreases in insulin-stimulated tyrosine phosphorylation of IR β-subunit (42±11%) and IRS-1 (37±9%). TNF-α mediated ‘insulin resistance’ was reversed by pretreatment with high-dose (5 mM) aspirin. IR and IRS-1 phosphorylation levels were restored to 126±24% and 136±35%, respectively, compared to untreated controls; IR and IRS-1 protein levels were unchanged in TNF-α and aspirin-treated cells. TNF-α activates a cascade of adapters and kinases, including TRADD, RIP, TRAF2, and TAB1, which act upstream of JNK, p38 MAPK, and the IKK complex. Okadaic acid and calyculin A, two phosphatase inhibitors, also activate IKKβ (DiDonato et al. (1997) Nature 388:548; Harhaj & Sun (1997) J Biol Chem 272:5409), but without activating upstream elements in the TNF-α signaling cascade. Okadaic acid and calyculin A also induce ‘insulin resistance’ in isolated tissues and cultured cells (Robinson et al (1993) Am J Physiol 265:E36; Paz et al (1997) J. Biol Chem 272:29911). Therefore, it was determined whether aspirin would reverse ‘insulin resistance’ caused by these inhibitors. Marked reductions in insulin-stimulated IR (29±12%) and IRS-1 (16±2%) tyrosine-phosphorylation were prevented by incubating the cells with high-dose aspirin (109±15% and 93±25%, respectively).
(§2) Hyperglycemia- and hyperinsulinemia-induced insulin resistance in diabetic subjects can be mimicked in cell culture by incubation with high concentrations of glucose and insulin. Potential mechanisms include glucose-induced activation of PKC, which can activate IKK. […] Concurrent treatment with aspirin restored IR (107±23%) and IRS-1 (90±23%) tyrosine-phosphorylation to levels seen in cells incubated at 5.5 mM glucose. […] Protein levels were restored by concurrent treatment with aspirin. Serine phosphorylation of IκB leads to ubiquitination and proteosome-mediated degradation. IRS proteins may be degraded by a similar route and in both cases, downregulation was inhibited by aspirin.

AKT kinase = experiment: Insulin-stimulated AKT phosphorylation in tissues from treated Zucker rats; type: in vivo, rat; conditions: liver and muscle of treated Zucker rats vs untreated
Description: (§3) Tissues were isolated from treated animals and insulin signaling proteins were analyzed. […] A cascade consisting of insulin receptor (IR), insulin-receptor substrate (IRS) proteins, PI 3-kinase and 3-phosphoinositide-dependent protein kinase-1 (PDK1), is required for maintenance of metabolic homeostasis.

ob/+ mice = experiment: Effects of high-dose aspirin in ob/+ mice (GTT); type: in vivo, mouse; conditions: aspirin treatment, 120 mg/kg/day; intraperitoneal GTT
Description: (§4) Ob/ob mice are leptin deficient.

IRS-2 = experiment: Tyrosine phosphorylation of IRS-2 in Fao hepatoma cells, TNF-α induced 'insulin resistance'; type: cell-based; conditions: Fao hepatoma cells, TNF-α plus drug
Insulin receptor (IR) = experiment: Insulin receptor tyrosine autophosphorylation in tissues from treated Zucker rats; type: in vivo, rat; conditions: liver and muscle of treated Zucker rats vs untreated
Description: as §3

Sprague-Dawley rats = experiment: Insulin sensitivity in Sprague-Dawley rats on aspirin treatment; type: in vivo, rat; conditions: rats not insulin resistant, obese, or diabetic
Zucker fa/fa rats = experiment: Effects of high-dose salicylates in Zucker fa/fa rats (GTT, ITT, serum lipids, ALT)
Description: as §4

IKKβ = biological target: T1, IKKβ (Homo sapiens, UniProt O14920); conditions: Yin et al (1998); cited from earlier work
T1 sequence (O14920 1-756): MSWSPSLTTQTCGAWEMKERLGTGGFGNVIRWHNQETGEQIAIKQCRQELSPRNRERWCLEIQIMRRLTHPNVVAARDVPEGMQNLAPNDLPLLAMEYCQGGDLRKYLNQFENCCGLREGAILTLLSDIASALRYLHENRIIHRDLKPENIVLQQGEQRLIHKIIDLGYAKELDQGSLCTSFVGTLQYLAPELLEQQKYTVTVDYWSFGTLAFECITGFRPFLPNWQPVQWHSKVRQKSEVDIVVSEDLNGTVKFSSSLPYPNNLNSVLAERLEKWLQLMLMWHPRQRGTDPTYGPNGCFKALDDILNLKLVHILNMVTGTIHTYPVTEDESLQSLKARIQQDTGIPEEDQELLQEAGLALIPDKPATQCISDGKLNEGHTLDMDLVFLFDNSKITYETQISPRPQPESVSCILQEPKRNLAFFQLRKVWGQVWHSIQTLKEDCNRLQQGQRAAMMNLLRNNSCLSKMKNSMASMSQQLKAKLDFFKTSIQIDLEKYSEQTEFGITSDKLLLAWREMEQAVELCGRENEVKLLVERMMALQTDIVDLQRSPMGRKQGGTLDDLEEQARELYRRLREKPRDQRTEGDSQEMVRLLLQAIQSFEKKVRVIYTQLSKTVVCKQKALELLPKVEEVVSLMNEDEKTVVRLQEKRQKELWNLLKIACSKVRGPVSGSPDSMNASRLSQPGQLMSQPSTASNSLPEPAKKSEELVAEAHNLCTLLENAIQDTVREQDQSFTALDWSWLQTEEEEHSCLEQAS

cyclooxygenases = conditions: Furst (1994); cited from earlier work
ob/ob mice = conditions: 120 mg/kg/day
Description: FIGS. 1A-H: In vivo effects of aspirin in Zucker fatty rats and ob/ob mice. (panels A-F) Twelve-week-old male Zucker rats (Harlan) and (panels G,H) eight-week-old ob/ob and ob/+ mice (Jackson Labs) were given free access to food and water. […] For glucose tolerance tests (GTT), glucose (2.0 g/kg) was administered by oral gavage (rats) or intraperitoneal injection (mice) after an overnight fast. (panels A,C) Blood glucose and (panels B,D) serum insulin levels were determined during oral glucose tolerance tests in (panels A,B) six Zucker fa/fa rats and (panels C,D) six fa/+ rats. For insulin tolerance tests (ITT) in (panel E) six Zucker fa/fa rats, insulin (2.0 U/kg) was injected intraperitoneally after an overnight fast. (panel F) Cholesterol (Chol), triglyceride (TG), long chain free fatty acid (FFA), and liver alanine aminotransferase (ALT) levels were measured in sera from fasting Zucker fa/fa rats. Glucose tolerance tests were conducted with (panel G) ten ob/ob mice and (panel H) ten ob/+ mice. Data are mean±SEM values; some SEM values are within the area of the symbols.
A determination of the effects of high-dose salicylates on obese rodents with severe insulin resistance was performed as follows. Twelve-week-old male Zucker fa/fa rats and eight-week-old male ob/ob mice were treated for 3-4 weeks with 120 mg/kg/day of aspirin or salicylate, administered by continuous subcutaneous infusion; this dose is roughly equivalent to 5-10 g/day in humans.

IR β-subunit = experiment: Insulin-stimulated tyrosine phosphorylation of IR in 3T3-L1 adipocytes made 'insulin resistant'; type: cell-based
Description: as §1, §2

IRS-1 [2] = experiment: Electrophoretic mobility of IRS-1 from livers of treated animals; type: in vivo; conditions: animal livers; suggests decrease in Ser/Thr phosphorylation
Description: In cultured cells, IRS proteins are especially prone to phosphorylation on serine and threonine residues, which opposes the effect of tyrosine phosphorylation by inhibiting signaling.

Zucker fa/+ rats = experiment: Effects of high-dose aspirin in Zucker fa/+ rats (oral GTT); type: in vivo, rat; conditions: 120 mg/kg/day
Description: as §4

[3] = 3T3-L1 adipocytes overnight in 25 mM glucose and 10 nM insulin, concurrent aspirin, relative to cells at 5.5 mM glucose
[4] = 3T3-L1 adipocytes, TNF-α, pretreatment with 5 mM aspirin
[5] = phosphatase inhibitor-induced 'insulin resistance', cells incubated with high-dose aspirin

## CC(=O)Oc1ccccc1C(=O)O [aspirin]
IR, IRS-2 and AKT
  Activation of IR, IRS-2 and AKT attenuated by expression of IKKβ, IKKα or NIK: reversed
IRS-1 [1]; [3]
  Insulin-stimulated IRS-1 tyrosine-phosphorylation: 90±23%
IRS-1 [1]; [4]
  IRS-1 phosphorylation level compared to untreated controls: 136±35%
IRS-1 [1]; [5]
  Insulin-stimulated IRS-1 tyrosine-phosphorylation: 93±25%
IRS-1 [1]; with aspirin
  Reduced electrophoretic mobility of IRS-1 due to calyculin A-induced phosphorylation: reversed
AKT kinase
  Insulin-stimulated AKT phosphorylation: increased
ob/+ mice
  Glucose intolerance: normalized
IRS-2
  Tyrosine-phosphorylation of IRS-2: 115±31%
Insulin receptor (IR)
  Insulin receptor (IR) tyrosine autophosphorylation: Significantly increased stimulation
Sprague-Dawley rats
  Insulin sensitivity: increased insulin sensitivity
Zucker fa/fa rats; 120 mg/kg/day continuous subcutaneous infusion, 3-4 weeks, oral GTT
  Insulin levels during glucose tolerance test: Concomitant reductions
Zucker fa/fa rats; 120 mg/kg/day continuous subcutaneous infusion, 3-4 weeks, oral GTT, compared to untreated controls
  Fasting blood glucose values and glucose tolerance: improved
Zucker fa/fa rats; Zucker fa/fa rats, 120 mg/kg/day
  Food intake, blood chemistry, or body weight: Neither aspirin nor salicylate affected
Zucker fa/fa rats; after the treatment period, aspirin 120 mg/kg/day
  Free fatty acid (FFA) levels: 1.1 ± 0.2 mM
Zucker fa/fa rats; after three weeks of aspirin treatment, 120 mg/kg/day
  Fasting triglyceride levels: 90 ± 58 mg/dL
Zucker fa/fa rats; fasting serum, aspirin 120 mg/kg/day
  Cholesterol levels: unaffected
Zucker fa/fa rats; intraperitoneal insulin 2.0 U/kg after overnight fast, aspirin-treated animals
  Blood glucose in insulin tolerance test: dramatic decreases
Zucker fa/fa rats; preceding reductions in triglyceride and glucose levels
  Time to drop in FFA levels after aspirin initiation: ≤ 1 week
Zucker fa/fa rats; throughout the studies
  Serum levels of liver enzyme alanine aminotransferase (ALT) (hepatotoxicity): normal, low
IKKβ
  Inhibition of IKKβ, relative potency: equipotent inhibitors
cyclooxygenases
  Potency towards the cyclooxygenases, aspirin relative to sodium salicylate: ~100 fold
ob/ob mice; 3-4 weeks, intraperitoneal GTT, compared to untreated controls, every time point
  Fasting blood glucose values and glucose tolerance: significantly improved
ob/ob mice; ob/ob mice
  Food intake, blood chemistry, or body weight: Neither aspirin nor salicylate affected
IR β-subunit; [3]
  Insulin-stimulated IR tyrosine-phosphorylation: 107±23%
IR β-subunit; 3T3-L1 adipocytes, TNF-α and aspirin-treated cells
  IR and IRS-1 protein levels: unchanged
IR β-subunit; [4]
  IR phosphorylation level compared to untreated controls: 126±24%
IR β-subunit; 3T3-L1 adipocytes, concurrent treatment with aspirin
  Protein levels of insulin signaling proteins downregulated by high glucose and insulin: restored
IR β-subunit; [5]
  Insulin-stimulated IR tyrosine-phosphorylation: 109±15%
IRS-1 [2]
  Electrophoretic mobility of IRS-1: increased
Zucker fa/+ rats; aspirin-treated group
  Insulin levels during glucose tolerance test: Significantly lower
Zucker fa/+ rats; following aspirin treatment
  Glucose levels during glucose tolerance test: marginally reduced

Reference: patent publication US6630312B2, “Method for identifying compounds for treatment of insulin resistance” (Joslin Diabetes Center, Inc., priority 1999, dated 2003)
